Laboratory results published in paper PMC11280343, “Rubus urticifolius Compounds with Antioxidant Activity, and Inhibition Potential against Tyrosinase, Melanin, Hyaluronidase, Elastase, and Collagenase” (Pharmaceuticals, 2024).
Like-named read-outs stand apart in the source and are kept apart here.

Tests used:
[1] = NR viability assay, HEK001; assay type: cell-based, Homo sapiens; settings: human
Description: (§1) The HEK001 (Homo sapiens cutaneous keratinocyte, CCL-2404), WS1 (Homo sapiens cutaneous fibroblast, CRL-1502), HMCB (Homo sapiens cutaneous melanoma, CRL-9607), and THP-1 (Homo sapiens peripheral blood monocyte, TIB-202) cell lines used in this study were obtained from the American Type Culture Collection (ATCC, Manassas, VA, USA). Cultivated in a Roswell Park Memorial Institute (RPMI) 1640 medium (RPMI 1640 Merck, Cat. No. R7755, New York, NY, USA) supplemented with 2 mM L-glutamine (≥99% Merck, Cat. No. 56-85-9), 10% fetal bovine serum (FBS Merck, Cat. No. TMS-016, St. Louis, MO, USA), and 10,000 units of penicillin and 10 mg streptomycin/mL (Merck, Cat. No. P4333, St. Louis, MO, USA) in culture flasks, the cells were maintained in an incubator under normoxic conditions (20–21% O2) and a humidified atmosphere (5% CO2 at 37 °C).
(§2) Mother solutions of samples (extracts, fractions, and compounds) were prepared at a concentration of […] using dimethyl sulfoxide (DMSO ≥ 99.9% Merck, Cat. No. 67-68-5, St. Louis, MO, USA) as the solvent. From these mother solutions, dilutions were prepared at concentrations ranging from 100 to 0.20 μg/mL or μM in culture medium containing 0.5% DMSO. Additionally, a negative control group consisting solely of culture medium with 0.5% DMSO was included to assess its potential cytotoxic effect on the cells.
(§3) Cell viability was evaluated using a colorimetric assay in 96-well plates, employing 3-amino-7-dimethylamino-2-methylphenazine hydrochloride salt reagent (NR, Merck, Cat. No. 553-24-2, St. Louis, MO, USA).
(§4) HEK001, WS1, HMCB, and THP-1 cell lines were cultured in 96-well plates at 37 °C with 5% CO2 until > 90% confluency was achieved (1 × 10^6 cells/well). Subsequently, the cultures were treated with sample dilutions (100–0.20 μg/mL or μM) for 72 h at 37 °C with 5% CO2 in phenol red-free RPMI. The supernatant was then discarded and the cells were washed with phosphate-buffered saline (PBS) before being incubated with […] NR (50 μg/mL; 173 μM) for 3 h at 37 °C with 5% CO2. NR labelling was performed after DMSO treatment. After incubation, the labelled sample dilutions were rapidly washed with a fixative solution composed of 1% calcium chloride (CaCl2 Merck, Cat. No. 10043-52-4, St. Louis, MO, USA) and 0.5% formaldehyde solution (≥36.0% in H2O Merck, Cat. No. 50-00-0, St. Louis, MO, USA), then diluted with 100 μL of the NR extraction solution. Finally, the plates were read at 540 nm using a microplate reader (Anthos 2020, version 2.0.5, Biochrom Ltd., Cambridge, UK).

NR viability assay, WS1 = assay type: cell-based, Homo sapiens; settings: human
Description: as §1, §2, §3, §4

NR viability assay, HMCB = assay type: cell-based, Homo sapiens; settings: human
Description: as §1, §2, §3, §4

[2] = test system: melanin production in HMCB cells; assay: Melanin content assay; assay type: cell-based; settings: Homo sapiens, 12 h
Description: (§5) To determine the anti-melanogenic activity of the samples (at the same concentration as in the viability assay), melanin inhibition assay was used, following the protocol carried out by Apaza Ticona et al.. HMCB cells were cultured in 96-well plates (1 × 10^6 cells/well). […] Absorbance was measured at 405 nm using a microplate reader.

Nrf2 [3] = assay: Nrf2 activation assay, THP-1; assay type: cell-based
Description: as §5, with “antioxidant response” for “anti-melanogenic activity”, “Nrf2 activation” for “melanin inhibition”, “Cells” for “HMCB cells”, “540” for “405”

Nrf2 [4] = assay: Nrf2 activation assay, HEK001; assay type: cell-based
Description: as §5, with “antioxidant response” for “anti-melanogenic activity”, “Nrf2 activation” for “melanin inhibition”, “Cells” for “HMCB cells”, “540” for “405”

Nrf2 [5] = assay: Nrf2 activation assay, HMCB; assay type: cell-based; settings: Homo sapiens, 72 h, read-out: Activation of Nrf2 production EC50
Description: as §5, with “antioxidant response” for “anti-melanogenic activity”, “Nrf2 activation” for “melanin inhibition”, “Cells” for “HMCB cells”, “540” for “405”

collagenase = assay: Collagenase inhibitory assay; assay type: biochemical; settings: for Collagenase Inhibition (%): inhibition percentage 'at an IC50', concentration not otherwise stated; for IC50: read-out: Anti-Collagenase IC50
Description: A fixed weight of 1 mg of azo dye-impregnated collagen was measured in the test tubes. Subsequently, 800 μL of 0.1 M Tris-HCl (pH 7) and 100 μL of the samples at the same concentrations used as in the viability assay were added to each test tube. Next, 100 μL of collagenase (200 units/mL) was immediately mixed into the mixture and the tubes were incubated at 43 °C for 1 h. After incubation, the test tubes were centrifuged at 3000 rpm for 10 min. The supernatant from each tube was transferred into 96-well plates and the absorbance of each supernatant was measured at 550 nm using a microplate reader.

THP-1 cell line = assay: NR viability assay, THP-1; assay type: cell-based, Homo sapiens; settings: 72 h
Description: as §1, §2, §3, §4

HEK001 cell line = assay: NR viability assay, HEK001; assay type: cell-based, Homo sapiens; settings: HEK001, NR assay, 72 h
Description: as §1, §2, §3, §4

WS1 cell line = assay: NR viability assay, WS1; assay type: cell-based, Homo sapiens; settings: WS1, NR assay, 72 h
Description: as §1, §2, §3, §4

HMCB cell line = assay: NR viability assay, HMCB; assay type: cell-based, Homo sapiens; settings: HMCB, NR assay, 72 h
Description: as §1, §2, §3, §4

[6] = HMCB cells, read-out: Inhibitory activity of melanin production IC50
[7] = Homo sapiens, THP-1, 72 h; read-out: Activation of Nrf2 production EC50
[8] = Homo sapiens, HEK001, 72 h; read-out: Activation of Nrf2 production EC50

## CNC(=O)c1ccccc1NC(=O)/C=C/c1ccc(OC)c(OC)c1 [Compound 1, (E)-2-(3-(3,4-dimethoxyphenyl)acrylamido)-N-methylbenzamide]
[1]; HEK001 cells (cutaneous keratinocytes), HEK001, NR assay, 72 h, read-out: Viability CC50
  CC50 at 72 h: 76.2 µM
NR viability assay, WS1; WS1 cells (cutaneous fibroblasts), WS1, NR assay, 72 h, read-out: Viability CC50
  CC50 at 72 h: 73 µM
NR viability assay, HMCB; HMCB cells (cutaneous melanoma), HMCB, NR assay, 72 h, read-out: Viability CC50
  CC50 at 72 h: 69.8 µM
[2]; [6]
  IC50: 22.2 µM
Nrf2 [3]; [7]
  EC50: 0.116 µM
Nrf2 [4]; [8]
  EC50: 0.202 µM
Nrf2 [5]
  EC50: 0.385 µM
collagenase
  Collagenase Inhibition (%): 62.24 ± 1.42%
  IC50: 76.6 ± 1.31 µM

## O=C(O)c1cc(O)c2ccccc2n1 [Compound 2, 4-hydroxyquinoline-2-carboxylic acid]
THP-1 cell line; human
  CC50: > 100 µM
[1]
  CC50 at 72 h: 95 µM
NR viability assay, WS1
  CC50 at 72 h: 89.9 µM
NR viability assay, HMCB
  CC50 at 72 h: 87.7 µM
[2]; [6]
  IC50: 44.7 µM
Nrf2 [3]; [7]
  EC50: 0.49 µM
Nrf2 [4]; [8]
  EC50: 0.32 µM
Nrf2 [5]
  EC50: 0.506 µM
collagenase
  Collagenase Inhibition (%): 24.87 ± 1.34%
  IC50: 152 ± 3.73 µM

## N#C/C(=C\c1ccc(O)cc1)C(=O)O [Compound 3, (E)-2-cyano-3-(4-hydroxyphenyl)acrylic acid]
THP-1 cell line; THP-1, NR assay, read-out: Viability CC50
  CC50: > 100 µM
[1]; HEK001, NR assay, 72 h, read-out: Viability CC50
  CC50 at 72 h: 130 µM
HEK001 cell line
  CC50: > 100 µM
NR viability assay, WS1; WS1, NR assay, 72 h, read-out: Viability CC50
  CC50 at 72 h: 107 µM
WS1 cell line
  CC50: > 100 µM
NR viability assay, HMCB; HMCB, NR assay, 72 h, read-out: Viability CC50
  CC50 at 72 h: 98.4 µM
HMCB cell line
  CC50: 98.6 µM
[2]; HMCB, read-out: Inhibitory activity of melanin production IC50, HMCB cells, 12 h
  IC50: 71.1 µM
Nrf2 [3]; Homo sapiens, THP-1, 72 h, read-out: Activation of Nrf2 production EC50
  EC50: 0.707 µM
Nrf2 [4]; Homo sapiens, HEK001, 72 h, read-out: Activation of Nrf2 production EC50
  EC50: 0.951 µM
Nrf2 [5]
  EC50: 1.02 µM
collagenase
  Collagenase Inhibition (%): 7.73 ± 1.21%
  IC50: 187 ± 2.61 µM
